Where “and” joins values, the source holds several entries; their conditions need not be identical. Equal entries are not always repeated. Where two headings read alike, the source gives them in different places.
Experiments:
[1] = PK Simulation Analysis 1 by superposition method (Phoenix WinNonlin NPS); set-up: species or system human
Text: The plasma concentration profile of Compound (2) on day 10 of repeated administration was predicted using the superposition method implemented in the Nonparametric Superposition (NPS) tool of the analysis software Phoenix WinNonlin, applying the single-dose results (Certara L.P.) (Fig. 4). Table 5: Predicted Plasma Concentration (ng/mL) of Compound (2) on Day 10 of Repeated Administration

[2] = PK Simulation Analysis 2 by superposition method (200 mg twice daily); set-up: species or system human; conditions: day 10 of repeated administration
Procedure: The plasma concentration of Compound (2) on day 10 of repeated administration at 200 mg twice daily (every 12 hours) was predicted using the superposition method implemented in the Nonparametric Superposition (NPS) tool of the analysis software Phoenix WinNonlin, applying the results of once-daily administration at 200 mg (Certara L.P.) (Fig. 6). Table 6: Predicted Plasma Concentration (ng/mL) of Compound (2) on Day 10 of Repeated Administration Twice Daily

[3] = for 12-Hour Post-Dose Trough Values of Compound (2) after Repeated Administration / Average Plasma Concentrations of Compound (2) on Day 10 of Repeated Administration: Compound (1) 200 mg twice daily C-SEDDS
Procedure: (§1) A phase 1 clinical trial was conducted to evaluate the safety, tolerability, and pharmacokinetics of Compound (1) when orally administered to healthy adult males.
(§2) This clinical trial was a single-center, randomized, double-blind, placebo-controlled, single and multiple ascending dose study with the primary objective of evaluating the safety and tolerability of Compound (1) when orally administered to healthy adult males.
(§3) The subjects in each cohort consisted of 8 people, of which 6 were assigned to Compound (1) and 2 were assigned to placebo, and they were administered the drug.
Day 8, when repeated administration was started, corresponds to administration day 1 (Day 1), and day 17 corresponds to administration day 10 (Day 10).
(§4) The plasma concentration of Compound (2) was measured using a validated measurement method. Specifically, plasma was separated from collected blood and processed, and then the plasma concentration was measured by an LC/MS/MS apparatus.
For twice-daily administration of C-SEDDS, blood was further collected at 13, 14, 14.5, and 16 hours later to quantify Compound (2).

[4] = Phase 1 single-dose administration study: plasma concentration of Compound (2) by LC/MS/MS; conditions: oral, single dose
Procedure: as §1, §2, §3, §4
Compound (1) was orally administered once to 6 healthy adult males per dose and dosage form at doses of 6, 20, 100, 200, and 400 mg in the form of hard capsules (CAP), liquid self-emulsifying drug delivery system (L-SEDDS), or soft capsule self-emulsifying drug delivery system (C-SEDDS).

[5] = Measured Value, Repeated, Twice daily, 400(200×2)/C-SEDDS, day 10

Cc1cc(=O)n(-c2ccc(C[C@H](NC(=O)c3cc(F)c(NS(=O)(=O)c4ccc(NC(=O)C(C)(C)C)cc4)cc3F)C(=O)O)cn2)c(=O)n1C [Compound (2)]
estimated trough value on the 10th day of repeated administration ([1]; 50 mg, 2.5 times the predicted 20 mg value): 2.03 ng/mL
Judgment Trough Value ([1]; estimated, repeated administration at 50 mg, 10th day): B (IC50 (1.9 ng/mL) or higher and less than IC90 (6.9 ng/mL))
predicted trough value for 200 mg twice daily compared to measured trough value after 400 mg once daily [2]: about twice
increase of plasma concentration (trough value) 12 hours after the second dose on the 10th day of repeated administration ([3]; C-SEDDS 200 mg twice daily, versus single-dose administration): about eightfold
12-Hour Post-Dose Trough Values of Compound (2) after Repeated Administration ([3]; Day 0.5): 2.025 ng/mL
12-Hour Post-Dose Trough Values of Compound (2) after Repeated Administration ([3]; Day 1): 3.653 ng/mL
12-Hour Post-Dose Trough Values of Compound (2) after Repeated Administration ([3]; Day 1.5): 4.250 ng/mL
12-Hour Post-Dose Trough Values of Compound (2) after Repeated Administration ([3]; Day 2): 6.021 ng/mL
12-Hour Post-Dose Trough Values of Compound (2) after Repeated Administration ([3]; Day 2.5): 7.700 ng/mL
12-Hour Post-Dose Trough Values of Compound (2) after Repeated Administration ([3]; Day 3): 7.026 ng/mL
12-Hour Post-Dose Trough Values of Compound (2) after Repeated Administration ([3]; Day 3.5): 7.381 ng/mL
12-Hour Post-Dose Trough Values of Compound (2) after Repeated Administration ([3]; Day 4): 9.303 ng/mL
12-Hour Post-Dose Trough Values of Compound (2) after Repeated Administration ([3]; Day 4.5): 9.167 ng/mL
12-Hour Post-Dose Trough Values of Compound (2) after Repeated Administration ([3]; Day 5): 9.985 ng/mL
12-Hour Post-Dose Trough Values of Compound (2) after Repeated Administration ([3]; Day 5.5): 12.59 ng/mL
12-Hour Post-Dose Trough Values of Compound (2) after Repeated Administration ([3]; Day 6): 11.20 ng/mL
12-Hour Post-Dose Trough Values of Compound (2) after Repeated Administration ([3]; Day 6.5): 10.81 ng/mL
12-Hour Post-Dose Trough Values of Compound (2) after Repeated Administration ([3]; Day 7): 11.82 ng/mL
12-Hour Post-Dose Trough Values of Compound (2) after Repeated Administration ([3]; Day 7.5): 10.83 ng/mL
12-Hour Post-Dose Trough Values of Compound (2) after Repeated Administration ([3]; Day 8): 14.16 ng/mL
12-Hour Post-Dose Trough Values of Compound (2) after Repeated Administration ([3]; Day 8.5): 12.12 ng/mL
12-Hour Post-Dose Trough Values of Compound (2) after Repeated Administration ([3]; Day 9): 15.06 ng/mL
12-Hour Post-Dose Trough Values of Compound (2) after Repeated Administration ([3]; Day 9.5): 12.20 ng/mL
12-Hour Post-Dose Trough Values of Compound (2) after Repeated Administration ([3]; Day 10): 13.69 ng/mL
Average Plasma Concentrations of Compound (2) on Day 10 of Repeated Administration ([3]; Day 10, Time 0.5 h): 11.82 ng/mL
Average Plasma Concentrations of Compound (2) on Day 10 of Repeated Administration ([3]; Day 10, Time 1 h): 10.63 ng/mL
Average Plasma Concentrations of Compound (2) on Day 10 of Repeated Administration ([3]; Day 10, Time 1.5 h): 10.52 ng/mL
Average Plasma Concentrations of Compound (2) on Day 10 of Repeated Administration ([3]; Day 10, Time 2 h): 14.42 ng/mL
Average Plasma Concentrations of Compound (2) on Day 10 of Repeated Administration ([3]; Day 10, Time 2.5 h): 17.31 ng/mL
Average Plasma Concentrations of Compound (2) on Day 10 of Repeated Administration ([3]; Day 10, Time 3 h): 18.02 ng/mL
Average Plasma Concentrations of Compound (2) on Day 10 of Repeated Administration ([3]; Day 10, Time 4 h): 20.07 ng/mL
Average Plasma Concentrations of Compound (2) on Day 10 of Repeated Administration ([3]; Day 10, Time 5 h): 20.59 ng/mL
Average Plasma Concentrations of Compound (2) on Day 10 of Repeated Administration ([3]; Day 10, Time 6 h): 14.19 ng/mL
Average Plasma Concentrations of Compound (2) on Day 10 of Repeated Administration ([3]; Day 10, Time 7 h): 12.13 ng/mL
Average Plasma Concentrations of Compound (2) on Day 10 of Repeated Administration ([3]; Day 10, Time 8 h): 10.93 ng/mL
Average Plasma Concentrations of Compound (2) on Day 10 of Repeated Administration ([3]; Day 10, Time 12 h): 12.20 ng/mL
Average Plasma Concentrations of Compound (2) on Day 10 of Repeated Administration ([3]; Day 10, Time 13 h): 15.64 ng/mL
Average Plasma Concentrations of Compound (2) on Day 10 of Repeated Administration ([3]; Day 10, Time 14 h): 25.37 ng/mL
Average Plasma Concentrations of Compound (2) on Day 10 of Repeated Administration ([3]; Day 10, Time 14.5 h): 25.16 ng/mL
Average Plasma Concentrations of Compound (2) on Day 10 of Repeated Administration ([3]; Day 10, Time 15 h): 22.99 ng/mL
Average Plasma Concentrations of Compound (2) on Day 10 of Repeated Administration ([3]; Day 10, Time 16 h): 20.48 ng/mL
Average Plasma Concentrations of Compound (2) on Day 10 of Repeated Administration ([3]; Day 10, Time 21 h): 13.24 ng/mL
Average Plasma Concentrations of Compound (2) on Day 10 of Repeated Administration ([3]; Day 10, Time 24 h): 13.69 ng/mL
12-Hour Post-Dose Trough Values of Compound (2) after Repeated Administration ([3]; Initial Value): 0.000 ng/mL
Judgment Trough Value [3, 5]: A (IC90 (6.9 ng/mL) or higher)
Plasma Concentration Trough Value [3, 5]: 13.69 ng/mL and 13.7 ng/mL
Average Plasma Concentrations of Compound (2) after Single-Dose Administration ([4]; Compound (1) 6 mg CAP, Time 1 h): 0.121 ng/mL
Average Plasma Concentrations of Compound (2) after Single-Dose Administration ([4]; Compound (1) 6 mg CAP, Time 1.5 h): 0.350 ng/mL
Average Plasma Concentrations of Compound (2) after Single-Dose Administration ([4]; Compound (1) 6 mg CAP, Time 2 h): 0.448 ng/mL
Average Plasma Concentrations of Compound (2) after Single-Dose Administration ([4]; Compound (1) 6 mg CAP, Time 2.5 h): 0.536 ng/mL
Average Plasma Concentrations of Compound (2) after Single-Dose Administration ([4]; Compound (1) 6 mg CAP, Time 3 h): 0.554 ng/mL
Average Plasma Concentrations of Compound (2) after Single-Dose Administration ([4]; Compound (1) 6 mg CAP, Time 4 h): 0.590 ng/mL
Average Plasma Concentrations of Compound (2) after Single-Dose Administration ([4]; Compound (1) 6 mg CAP, Time 5 h): 0.424 ng/mL
Average Plasma Concentrations of Compound (2) after Single-Dose Administration ([4]; Compound (1) 6 mg CAP, Time 6 h): 0.313 ng/mL
Average Plasma Concentrations of Compound (2) after Single-Dose Administration ([4]; Compound (1) 6 mg CAP, Time 7 h): 0.209 ng/mL
Average Plasma Concentrations of Compound (2) after Single-Dose Administration ([4]; Compound (1) 6 mg CAP, Time 8 h): 0.127 ng/mL
Average Plasma Concentrations of Compound (2) after Single-Dose Administration ([4]; Compound (1) 6 mg CAP, Time 12 h): 0.075 ng/mL
Average Plasma Concentrations of Compound (2) after Single-Dose Administration ([4]; Compound (1) 20 mg CAP, Time 1 h): 0.211 ng/mL
Average Plasma Concentrations of Compound (2) after Single-Dose Administration ([4]; Compound (1) 20 mg CAP, Time 1.5 h): 0.585 ng/mL
Average Plasma Concentrations of Compound (2) after Single-Dose Administration ([4]; Compound (1) 20 mg CAP, Time 2 h): 0.768 ng/mL
Average Plasma Concentrations of Compound (2) after Single-Dose Administration ([4]; Compound (1) 20 mg CAP, Time 2.5 h): 1.023 ng/mL
Average Plasma Concentrations of Compound (2) after Single-Dose Administration ([4]; Compound (1) 20 mg CAP, Time 3 h): 0.926 ng/mL
Average Plasma Concentrations of Compound (2) after Single-Dose Administration ([4]; Compound (1) 20 mg CAP, Time 4 h): 0.817 ng/mL
Average Plasma Concentrations of Compound (2) after Single-Dose Administration ([4]; Compound (1) 20 mg CAP, Time 5 h): 0.702 ng/mL
Average Plasma Concentrations of Compound (2) after Single-Dose Administration ([4]; Compound (1) 20 mg CAP, Time 6 h): 0.567 ng/mL
Average Plasma Concentrations of Compound (2) after Single-Dose Administration ([4]; Compound (1) 20 mg CAP, Time 7 h): 0.533 ng/mL
Average Plasma Concentrations of Compound (2) after Single-Dose Administration ([4]; Compound (1) 20 mg CAP, Time 8 h): 0.507 ng/mL
Average Plasma Concentrations of Compound (2) after Single-Dose Administration ([4]; Compound (1) 20 mg CAP, Time 12 h): 0.351 ng/mL
Average Plasma Concentrations of Compound (2) after Single-Dose Administration ([4]; Compound (1) 20 mg CAP, Time 15 h): 0.338 ng/mL
Average Plasma Concentrations of Compound (2) after Single-Dose Administration ([4]; Compound (1) 20 mg CAP, Time 21 h): 0.339 ng/mL
Average Plasma Concentrations of Compound (2) after Single-Dose Administration ([4]; Compound (1) 20 mg CAP, Time 24 h): 0.245 ng/mL
